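Cultured in 96-well plates, cells were exposed to test compound for 48 hours across five concentrations. TGI is the concentration that stops growth completely.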
Columns and labels:
Test in all cases: inhibition of tumour cell growth, NCI panel, 48 h
BT-549 breast = test system: BT-549 breast
EKVX NSCLC = test system: EKVX NSCLC
HL-60(TB) leukemia = test system: HL-60(TB) leukemia
HOP-62 NSCLC = test system: HOP-62 NSCLC
HT29 colon = test system: HT29 colon
OVCAR-4 ovarian = test system: OVCAR-4 ovarian
OVCAR-8 ovarian = test system: OVCAR-8 ovarian
SK-MEL-5 melanoma = test system: SK-MEL-5 melanoma
TK-10 renal = test system: TK-10 renal
UACC-62 melanoma = test system: UACC-62 melanoma

Structure (SMILES)	TGI (BT-549 breast) [µM]	TGI (EKVX NSCLC) [µM]	TGI (HL-60(TB) leukemia) [µM]	TGI (HOP-62 NSCLC) [µM]	TGI (HT29 colon) [µM]	TGI (OVCAR-4 ovarian) [µM]	TGI (OVCAR-8 ovarian) [µM]	TGI (SK-MEL-5 melanoma) [µM]	TGI (TK-10 renal) [µM]	TGI (UACC-62 melanoma) [µM]
CCCCCCC1OC23OC1CCC2C(O)CCC3O (stereo not given)	> 100	> 100	> 100	> 100	> 100	> 100	> 100	> 100	> 100	> 100
C[C@H]1CCC/C=C/[C@@H]2C[C@H](OC(=O)CN(C)C)C[C@H]2[C@H](O)/C=C/C(=O)O1	> 71	22.2	6.2	> 100	1.07	9.64	5.54	0.0944	1.93	22.1
CCCCCC(=O)OC[n+]1cccc(-c2c(COC(=O)NC(C)C)c(COC(=O)NC(C)C)c3n2CCC3)c1	> 100	> 100	> 100	> 100	> 100	> 100	> 100	> 100	> 100	89.2
O=C1C(Cl)=CC2(C=C1Cl)CCN=c1c(O)c3c(c(O)c12)=NC=N3	75.2	> 100	53.6	> 100	71.8	> 100	> 100	30.8	> 100	34.7
Cc1ccc2c(=O)cc(-c3cc(C)sc3C)[nH]c2n1	> 100	> 100	6.74	> 100	32.9	> 100	> 37.3	16.4	> 100	> 100
CCOC(=O)c1c(C)n(-c2ccc(C)cc2)c(=O)c2ccccc2c(=O)c2c(=O)ccc(=O)c1=2	57.9	80	40.8	46	38.7	58.5	33.6	30.4	29.4	52
COc1cc2c(cc1OCCCOc1cc3c(cc1OC)C(=O)N1CCC[C@H]1C(=O)N3)N=C[C@@H]1CCCN1C2=O	83.3	46.4	42.3	> 100	35.4	42.4	> 100	26.8	84.5	19.5
O=C(/C=C/c1ccccc1)CCN1CCCCC1	> 100	> 100	> 100	> 100	43.3	> 100	38.4	> 100	> 100	> 100
NC(CCC(=O)O)C(=O)NC(Cc1ccc(N(CCCl)CCCl)cc1)C(=O)O (stereo not given)	> 100	> 100	> 100	> 100	> 100	> 100	> 100	> 100	> 100	> 100
O=C(Nc1ccc(Cl)cc1Cl)C1C(=O)OC2(CCCCC2)OC1=O	26.7	32.3	29.9	17.3	25	> 100	39.6	22.1	> 100	24.4
O=[N+]([O-])c1ccc2c3c1[C@@H]1O[C@@H]1c1cccc(c1-3)[C@@H]1O[C@H]21	21.1	20.4	7.58	34.4	14.7	9.48	4.46	27.2	> 51.2	31.6
O=C(O)c1ccccc1/C=C1\Cc2cc3c(cc2C1=O)CCC3	> 100	> 100	27.1	65.2	49.1	85.7	> 100	38.1	65.8	57.8
Clc1ccc(C(OCn2ccnc2)c2nc3ccccc3[nH]2)c(Cl)c1 (stereo not given)	81.7	> 100	> 100	> 100	> 100	> 100	> 100	35.2	> 100	> 100
CC(=O)n1c2ccc(Br)cc2c2nc3ccccc3nc21	> 100	> 100	> 100	> 100	> 100	> 100	> 100	> 100	> 100	> 100
COc1cc(CCN)c(OC)c(OC)c1	> 100	> 100	> 100	> 100	> 100	> 100	> 100	54.9	> 100	> 100
COC(=O)/C(=N\N)C(C(=O)C(=O)Nc1cc(Cl)ccc1Cl)c1nc2ccc([N+](=O)[O-])cc2[nH]c1=O (stereo not given)	> 100	> 100	> 100	> 100	> 100	> 100	> 100	> 100	> 100	> 100
O=C1CSC(c2cc3cc(Br)ccc3nc2Cl)N1c1ccc(Cl)cc1 (stereo not given)	61.5	> 100	55.7	> 100	> 100	81.5	> 100	37.9	70.7	22.6

Source: PubChem BioAssay (NCI)
